Key:
[1] = target: Voltage-gated L-type calcium channel (Rattus norvegicus, UniProt P22002+Q02485+P27732); assay: Inhibition of L-type calcium channel in rat A10 cells assessed as inhibition of depolarization-induced increase in calcium flux after 10 mins by FLIPR assay
[2] = target: T1, Mineralocorticoid receptor (Homo sapiens, UniProt P08235)
T1 sequence (P08235 whole entry): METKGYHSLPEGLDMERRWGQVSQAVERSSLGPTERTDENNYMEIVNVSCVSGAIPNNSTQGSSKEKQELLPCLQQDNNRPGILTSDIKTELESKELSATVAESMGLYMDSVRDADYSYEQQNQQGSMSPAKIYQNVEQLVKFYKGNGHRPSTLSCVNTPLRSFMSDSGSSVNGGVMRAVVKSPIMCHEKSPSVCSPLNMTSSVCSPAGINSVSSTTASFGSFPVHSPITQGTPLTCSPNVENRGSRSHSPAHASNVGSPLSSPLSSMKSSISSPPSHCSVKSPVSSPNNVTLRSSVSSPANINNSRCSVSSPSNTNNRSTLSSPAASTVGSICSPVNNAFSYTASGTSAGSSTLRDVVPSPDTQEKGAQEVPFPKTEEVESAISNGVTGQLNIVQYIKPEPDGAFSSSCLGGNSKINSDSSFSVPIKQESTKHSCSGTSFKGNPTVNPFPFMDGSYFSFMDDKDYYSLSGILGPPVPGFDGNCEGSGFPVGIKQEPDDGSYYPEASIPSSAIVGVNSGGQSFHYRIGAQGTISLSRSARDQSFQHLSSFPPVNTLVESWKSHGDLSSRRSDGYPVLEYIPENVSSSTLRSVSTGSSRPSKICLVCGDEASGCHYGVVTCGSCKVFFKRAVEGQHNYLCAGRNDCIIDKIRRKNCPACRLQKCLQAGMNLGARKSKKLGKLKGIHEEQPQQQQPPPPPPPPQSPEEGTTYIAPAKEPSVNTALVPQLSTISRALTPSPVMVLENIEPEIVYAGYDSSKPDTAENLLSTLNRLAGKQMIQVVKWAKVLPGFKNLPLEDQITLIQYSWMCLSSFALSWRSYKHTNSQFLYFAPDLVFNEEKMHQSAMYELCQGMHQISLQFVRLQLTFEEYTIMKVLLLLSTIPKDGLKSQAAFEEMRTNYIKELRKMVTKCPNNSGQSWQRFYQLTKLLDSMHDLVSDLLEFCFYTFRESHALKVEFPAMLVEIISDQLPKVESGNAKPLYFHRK
Description: Antagonist activity at Gal4-fused mineralocorticoid receptor expressed in human HuH7 cells assessed as inhibition of aldosterone-induced receptor activation by luciferase reporter gene assay

Estrogen receptor = target: T2, Estrogen receptor (Homo sapiens, UniProt P03372); assay: Inhibition of estrogen receptor
T2 sequence (P03372 whole entry): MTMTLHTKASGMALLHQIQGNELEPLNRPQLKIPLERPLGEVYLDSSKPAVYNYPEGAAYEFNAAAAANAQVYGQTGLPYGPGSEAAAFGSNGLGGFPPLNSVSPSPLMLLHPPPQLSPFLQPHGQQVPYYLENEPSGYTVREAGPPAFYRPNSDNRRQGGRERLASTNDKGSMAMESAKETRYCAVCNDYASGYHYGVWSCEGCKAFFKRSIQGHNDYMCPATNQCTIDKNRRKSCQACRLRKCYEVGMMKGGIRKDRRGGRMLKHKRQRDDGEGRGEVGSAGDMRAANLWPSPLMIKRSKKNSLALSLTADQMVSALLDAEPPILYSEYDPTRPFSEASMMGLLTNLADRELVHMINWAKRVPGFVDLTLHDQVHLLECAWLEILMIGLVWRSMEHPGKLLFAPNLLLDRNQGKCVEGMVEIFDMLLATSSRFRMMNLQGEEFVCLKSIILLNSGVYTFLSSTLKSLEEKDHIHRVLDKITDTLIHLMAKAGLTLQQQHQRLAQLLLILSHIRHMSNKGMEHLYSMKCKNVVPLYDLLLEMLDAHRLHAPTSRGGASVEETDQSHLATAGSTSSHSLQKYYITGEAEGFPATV

Glucocorticoid receptor = target: T3, Glucocorticoid receptor (Homo sapiens, UniProt P04150); assay: Inhibition of glucocorticoid receptor
T3 sequence (P04150 whole entry): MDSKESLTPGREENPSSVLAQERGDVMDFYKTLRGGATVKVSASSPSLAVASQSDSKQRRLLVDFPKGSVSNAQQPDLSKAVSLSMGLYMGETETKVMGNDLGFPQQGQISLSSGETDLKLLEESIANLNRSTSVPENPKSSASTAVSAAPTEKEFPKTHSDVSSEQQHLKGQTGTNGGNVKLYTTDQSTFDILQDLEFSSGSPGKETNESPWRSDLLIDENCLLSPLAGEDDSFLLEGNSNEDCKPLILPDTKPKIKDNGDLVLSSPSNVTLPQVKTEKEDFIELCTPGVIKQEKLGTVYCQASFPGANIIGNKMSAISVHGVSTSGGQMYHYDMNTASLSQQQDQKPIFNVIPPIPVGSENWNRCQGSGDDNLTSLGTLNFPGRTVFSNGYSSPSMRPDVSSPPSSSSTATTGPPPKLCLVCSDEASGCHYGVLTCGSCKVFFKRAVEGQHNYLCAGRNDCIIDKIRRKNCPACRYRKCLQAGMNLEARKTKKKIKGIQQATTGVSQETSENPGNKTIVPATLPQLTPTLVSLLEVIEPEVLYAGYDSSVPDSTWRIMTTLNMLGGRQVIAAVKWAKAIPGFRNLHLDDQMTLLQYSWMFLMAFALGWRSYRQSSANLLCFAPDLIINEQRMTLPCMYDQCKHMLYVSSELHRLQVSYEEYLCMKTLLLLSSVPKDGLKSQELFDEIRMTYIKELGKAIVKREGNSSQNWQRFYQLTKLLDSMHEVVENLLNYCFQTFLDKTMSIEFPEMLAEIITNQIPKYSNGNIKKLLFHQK

[3] = (§1) Half life in Sprague-Dawley rat at 2 mg/kg, iv by LC/MS/MS analysis; format: ADME, organism-based; set-up: dose 2 mg/kg, route intravenous; conditions: Sprague-Dawley, in vivo
[4] = Volume of distribution at steady state in Sprague-Dawley rat at 2 mg/kg, iv by LC/MS/MS analysis; format: ADME, organism-based; set-up: dose 2 mg/kg, route intravenous; conditions: in vivo, read-out: Vdss
Androgen receptor = target: T4, Androgen receptor (Homo sapiens, UniProt P10275); assay: Inhibition of androgen receptor
T4 sequence (P10275 whole entry): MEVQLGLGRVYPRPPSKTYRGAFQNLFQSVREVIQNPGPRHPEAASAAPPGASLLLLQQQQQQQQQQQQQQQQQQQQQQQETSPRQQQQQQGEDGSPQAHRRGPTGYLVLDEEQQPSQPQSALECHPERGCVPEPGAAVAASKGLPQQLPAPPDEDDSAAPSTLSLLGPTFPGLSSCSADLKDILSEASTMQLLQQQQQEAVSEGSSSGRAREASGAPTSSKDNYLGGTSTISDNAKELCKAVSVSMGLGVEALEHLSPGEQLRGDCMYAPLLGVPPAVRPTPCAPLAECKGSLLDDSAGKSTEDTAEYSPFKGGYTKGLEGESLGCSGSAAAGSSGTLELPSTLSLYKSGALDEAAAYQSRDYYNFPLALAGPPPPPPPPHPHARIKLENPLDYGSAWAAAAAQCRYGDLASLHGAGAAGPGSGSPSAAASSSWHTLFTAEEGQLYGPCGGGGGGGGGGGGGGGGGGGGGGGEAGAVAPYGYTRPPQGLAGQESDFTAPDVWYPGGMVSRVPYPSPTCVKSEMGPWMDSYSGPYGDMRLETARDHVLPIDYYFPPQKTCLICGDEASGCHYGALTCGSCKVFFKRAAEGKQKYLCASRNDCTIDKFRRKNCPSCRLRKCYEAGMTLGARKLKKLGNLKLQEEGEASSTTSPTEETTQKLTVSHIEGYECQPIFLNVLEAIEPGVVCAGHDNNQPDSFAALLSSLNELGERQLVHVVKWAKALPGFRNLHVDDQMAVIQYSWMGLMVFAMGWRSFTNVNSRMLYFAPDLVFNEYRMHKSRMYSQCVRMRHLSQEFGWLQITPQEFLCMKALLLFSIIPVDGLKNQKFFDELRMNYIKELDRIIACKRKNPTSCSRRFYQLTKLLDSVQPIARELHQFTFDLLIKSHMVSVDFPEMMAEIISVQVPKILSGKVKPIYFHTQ

Progesterone receptor = target: T5, Progesterone receptor (Homo sapiens, UniProt P06401); assay: Inhibition of progesterone receptor
T5 sequence (P06401 whole entry): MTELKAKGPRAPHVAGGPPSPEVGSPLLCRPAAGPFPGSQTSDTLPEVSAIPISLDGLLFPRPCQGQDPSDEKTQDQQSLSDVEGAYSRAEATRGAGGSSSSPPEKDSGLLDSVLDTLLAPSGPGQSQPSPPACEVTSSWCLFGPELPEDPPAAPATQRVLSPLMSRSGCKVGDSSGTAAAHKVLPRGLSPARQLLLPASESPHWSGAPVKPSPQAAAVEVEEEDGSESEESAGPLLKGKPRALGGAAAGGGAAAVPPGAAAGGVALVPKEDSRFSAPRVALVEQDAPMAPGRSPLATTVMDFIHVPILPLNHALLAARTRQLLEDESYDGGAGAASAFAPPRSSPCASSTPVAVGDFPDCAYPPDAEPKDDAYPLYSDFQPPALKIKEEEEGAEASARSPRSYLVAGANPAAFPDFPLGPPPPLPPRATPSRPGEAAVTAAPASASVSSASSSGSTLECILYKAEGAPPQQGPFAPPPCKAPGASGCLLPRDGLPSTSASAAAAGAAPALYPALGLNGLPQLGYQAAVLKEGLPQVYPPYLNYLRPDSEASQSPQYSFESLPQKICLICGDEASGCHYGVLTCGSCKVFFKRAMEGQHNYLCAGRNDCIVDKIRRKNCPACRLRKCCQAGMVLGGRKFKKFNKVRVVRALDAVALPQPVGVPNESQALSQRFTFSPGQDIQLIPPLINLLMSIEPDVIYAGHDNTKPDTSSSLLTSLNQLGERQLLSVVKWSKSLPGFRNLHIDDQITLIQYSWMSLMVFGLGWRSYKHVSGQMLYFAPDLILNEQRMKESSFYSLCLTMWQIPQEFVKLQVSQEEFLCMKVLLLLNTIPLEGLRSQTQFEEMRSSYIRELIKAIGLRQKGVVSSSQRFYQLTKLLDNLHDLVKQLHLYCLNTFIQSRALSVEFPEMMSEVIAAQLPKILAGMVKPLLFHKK

[5] = Clearance in Sprague-Dawley rat at 2 mg/kg, iv by LC/MS/MS analysis; format: ADME, organism-based; set-up: dose 2 mg/kg, route intravenous; conditions: in vivo
Rattus norvegicus = assay: as §1; format: ADME, organism-based; set-up: dose 2 mg/kg, route intravenous; conditions: in vivo

Row | IC50 [1] [nM] | IC50 [2] [nM] | SMILES | further results
1 | > 20 | 126 | COC(=O)C1=C(C)NC(C)=C(C(=O)OC(C)(C)C)C1c1cccc([N+](=O)[O-])c1 (racemic) [MEBUDIPINE] | 
2 | 1100 | 31 | CCCC1=C(C(=O)OCC)C(c2ccnc3ccccc23)C(C#N)=C(C)N1 (racemic) | 
3 | 570 | 2200 | COC(=O)C1=C(CCl)NC(C)=C(C#N)[C@@H]1c1ccc(F)cc1Cl | 
4 | > 1550 | 59 | CC1=C(C#N)C(c2ccc(F)cc2Cl)C(C(=O)OC(C)(C)C)=C(C)N1 (racemic) | 
5 | 1330 | 3280 | CCCC1=C(C(=O)OCC)[C@@H](c2ccnc3ccccc23)C(C#N)=C(C)N1 | 
6 | 607 | 46 | COC(=O)C1=C(C)NC(C)=C(C(=O)OC(C)(C)C)[C@@H]1c1cccc([N+](=O)[O-])c1 | IC50 (Glucocorticoid receptor): 3260 nM; IC50 (Androgen receptor): 1270 nM; IC50 (Progesterone receptor): 768 nM
7 |  | 3.7 | CC1=C(C#N)[C@@H](c2ccc(F)cc2Cl)C(C(=O)OC(C)(C)C)=C(C)N1 | IC50 (Estrogen receptor): > 10000 nM; IC50 (Glucocorticoid receptor): 1370 nM; t1/2 (Rattus norvegicus): 1.14 h; IC50 (Androgen receptor): 246 nM; IC50 (Progesterone receptor): 3520 nM
8 | 14570 | 469 | COC(=O)C1=C(C)NC(C)=C(C#N)[C@@H]1c1ccnc2ccccc12 | 
9 | 7930 | 340 | COC(=O)C1=C(CCl)NC(C)=C(C#N)[C@H]1c1ccnc2ccccc12 | 
10 | 2070 | 41 | COC(=O)C1=C(CCl)NC(C)=C(C#N)[C@H]1c1ccc(F)cc1Cl | 
11 | 7730 | 77 | COC(=O)C1=C(C)NC(C)=C(C#N)[C@H]1c1ccnc2ccccc12 | 
12 | 11270 | 2800 | COC(=O)C1=C(CCl)NC(C)=C(C#N)[C@@H]1c1ccnc2ccccc12 | 
13 | > 0.5 | 536 | COC(=O)C1=C(C)NC(C)=C(C(=O)OC(C)(C)C)[C@H]1c1cccc([N+](=O)[O-])c1 | 
14 | > 5000 |  | COC(=O)[C@@H]1CC2=CC(=O)CC[C@]2(C)[C@@]23O[C@@H]2C[C@@]2(C)[C@@H](CC[C@@]24CCC(=O)O4)[C@H]13 [EPLERENONE] | 
15 | 3840 | 3520 | CC1=C(C#N)[C@H](c2ccc(F)cc2Cl)C(C(=O)OC(C)(C)C)=C(C)N1 | 

Row | SMILES | IC50 [1] [nM] | IC50 [2] [nM] | further results
16 | CCCC1=C(C(=O)OCC)[C@H](c2ccnc3ccccc23)C(C#N)=C(C)N1 | 2200 | 10 | IC50 (Estrogen receptor): > 10000 nM; IC50 (Glucocorticoid receptor): 270 nM; half-life [3]: 6.54 h; Vd [4]: 0.42 L/kg; IC50 (Androgen receptor): 730 nM; IC50 (Progesterone receptor): 1340 nM; clearance [5]: 9.7 mL/min/kg
